Measured values taken from patent publication US12129246B1, “Hydroquinazoline derivatives for the treatment of a disease or disorder” (Novartis AG, priority 2023, dated 2024).
Read-outs that look alike come from different tables or passages of the source.

What was measured:
human NPR1 = target: T1, human NPR1 (Homo sapiens, UniProt P16066); test: Cellular cGMP production assay, human NPR1 expressing CHO-K1 cells (CisBio HTRF); assay type: cell-based; details: for AC50: cGMP production, 30 min at 37° C., 12-point dose-response from 30 μM; for Human NPR1 Amax (% of ANP): maximum cGMP production as percentage of the maximum cGMP produced with ANP
T1 construct: host or cells: CHO-K1
T1 sequence (P16066 33-1061): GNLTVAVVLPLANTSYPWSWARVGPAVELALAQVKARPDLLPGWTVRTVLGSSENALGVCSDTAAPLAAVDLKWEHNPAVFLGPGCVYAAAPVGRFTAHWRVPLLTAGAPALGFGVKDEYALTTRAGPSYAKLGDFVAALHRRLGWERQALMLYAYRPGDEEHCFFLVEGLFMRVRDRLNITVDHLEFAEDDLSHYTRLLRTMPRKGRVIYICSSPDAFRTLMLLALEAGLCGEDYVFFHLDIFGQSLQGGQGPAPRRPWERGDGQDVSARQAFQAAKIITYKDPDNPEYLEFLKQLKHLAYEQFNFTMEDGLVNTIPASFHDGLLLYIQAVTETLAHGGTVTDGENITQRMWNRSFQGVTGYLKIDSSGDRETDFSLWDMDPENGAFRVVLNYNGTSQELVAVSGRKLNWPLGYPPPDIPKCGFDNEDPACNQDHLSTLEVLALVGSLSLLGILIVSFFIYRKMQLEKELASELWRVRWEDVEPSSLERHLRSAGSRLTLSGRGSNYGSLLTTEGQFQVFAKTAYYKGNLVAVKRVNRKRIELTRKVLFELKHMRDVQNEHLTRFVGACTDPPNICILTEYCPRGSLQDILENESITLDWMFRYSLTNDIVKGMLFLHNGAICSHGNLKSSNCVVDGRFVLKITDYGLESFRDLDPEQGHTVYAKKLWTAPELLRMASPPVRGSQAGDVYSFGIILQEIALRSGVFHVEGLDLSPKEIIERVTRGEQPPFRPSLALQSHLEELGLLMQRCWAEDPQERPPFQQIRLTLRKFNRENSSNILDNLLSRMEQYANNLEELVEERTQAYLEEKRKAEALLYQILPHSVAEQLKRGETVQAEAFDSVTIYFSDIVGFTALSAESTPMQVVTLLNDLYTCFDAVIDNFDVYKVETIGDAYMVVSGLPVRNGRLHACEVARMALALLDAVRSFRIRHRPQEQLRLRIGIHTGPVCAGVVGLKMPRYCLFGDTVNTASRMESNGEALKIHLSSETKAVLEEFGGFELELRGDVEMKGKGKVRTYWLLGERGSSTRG
How it was run: (§1)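 CHO-K1 cells expressing human or cynomolgus NPR1 treated with compound (12-point, 3-fold dilutions from 30 μM top) in PBS+0.1% BSA with 1 mM IBMX, 30 min at 37° C. After lysis, cGMP quantified by HTRF competition (cGMP-d2/anti-cGMP-cryptate, 1 h RT, 665 nm emission) against a calibrator standard curve.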

monkey NPR1 = monkey NPR1 (Macaca fascicularis, UniProt A0A7N9DBT9); test: Cellular cGMP production assay, monkey NPR1 expressing CHO-K1 cells (CisBio HTRF); assay type: cell-based; details: for Monkey NPR1 Amax (% of ANP): maximum cGMP production as percentage of the maximum cGMP produced with ANP
monkey NPR1, sequence (A0A7N9DBT9 entry or part of it): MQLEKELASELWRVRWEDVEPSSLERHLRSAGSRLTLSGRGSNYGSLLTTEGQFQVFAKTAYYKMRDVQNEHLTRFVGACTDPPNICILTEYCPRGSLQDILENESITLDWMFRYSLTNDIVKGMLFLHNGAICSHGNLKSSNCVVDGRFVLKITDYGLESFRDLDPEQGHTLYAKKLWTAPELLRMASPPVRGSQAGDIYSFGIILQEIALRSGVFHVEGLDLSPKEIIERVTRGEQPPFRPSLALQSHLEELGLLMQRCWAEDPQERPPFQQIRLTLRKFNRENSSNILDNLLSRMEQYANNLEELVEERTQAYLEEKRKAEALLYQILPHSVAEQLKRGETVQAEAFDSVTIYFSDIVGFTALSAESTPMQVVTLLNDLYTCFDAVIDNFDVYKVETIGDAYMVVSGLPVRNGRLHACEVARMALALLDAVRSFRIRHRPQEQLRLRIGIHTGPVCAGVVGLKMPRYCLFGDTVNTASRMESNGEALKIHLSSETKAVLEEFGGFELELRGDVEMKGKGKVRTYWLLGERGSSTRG
How it was run: as §1

[1] = cGMP production, monkey NPR1 CHO-K1 cells, 30 min at 37° C., 12-point dose-response from 30 μM, read-out: Monkey NPR1 AC50

| SMILES | AC50 (human NPR1) | Human NPR1 Amax (% of ANP) (human NPR1) | AC50 (monkey NPR1; [1]) | Monkey NPR1 Amax (% of ANP) (monkey NPR1; monkey NPR1 CHO-K1 cells) | AC50 (monkey NPR1) |
| --- | --- | --- | --- | --- | --- |
| CC[C@@H](Nc1nc2c(c(N[C@@H](CN3CCC(C)CC3)c3cnn(C)c3)n1)C[C@H](c1ccccc1)CC2)[C@H]1CC[C@H](C(=O)O)CC1 [Compound 121, (1R,4r)-4-((R)-1-(((R)-4-(((R)-1-(1-methyl-1H-pyrazol-4-yl)-2-(4-methylpiperidin-1-yl)ethyl)amino)-6-phenyl-5,6,7,8-tetrahydroquinazolin-2-yl)amino)propyl)cyclohexane-1-carboxylic acid] | 570 nM | 100.330 % of ANP | 382 nM | 102.117 % of ANP | – |
| CC[C@H]([C@H]1CC[C@H](C(=O)O)CC1)N(C)c1nc2c(c(N[C@@H](CN3CCC[C@H](CO)C3)c3cnn(C)c3)n1)C[C@H](c1cccc(F)c1)CC2 [Compound 72, (1R,4r)-4-((R)-1-(((R)-6-(3-fluorophenyl)-4-(((R)-2-((S)-3-(hydroxymethyl)piperidin-1-yl)-1-(1-methyl-1H-pyrazol-4-yl)ethyl)amino)-5,6,7,8-tetrahydroquinazolin-2-yl)(methyl)amino)propyl)cyclohexane-1-carboxylic acid] | 242 nM | 99.718 % of ANP | 137 nM | 104.824 % of ANP | – |
| CC[C@H]([C@H]1CC[C@H](C(=O)O)CC1)N(C)c1nc2c(c(N[C@@H](CN3C4CCCC3CC4)c3cn(C)nc3C)n1)C[C@H](c1cccc(F)c1)CC2 [Compound 102, (1R,4r)-4-((1R)-1-(((6R)-4-(((1R)-2-(8-azabicyclo[3.2.1]octan-8-yl)-1-(1,3-dimethyl-1H-pyrazol-4-yl)ethyl)amino)-6-(3-fluorophenyl)-5,6,7,8-tetrahydroquinazolin-2-yl)(methyl)amino)propyl)cyclohexane-1-carboxylic acid] | 382 nM | 96.769 % of ANP | – | 107.819 % of ANP | 279 nM |
| CC[C@@H](Nc1nc2c(c(N[C@@H](CN3CCC[C@H](C)C3)c3cnn(C)c3)n1)C[C@](C)(c1ccc(F)cc1)CC2)[C@H]1CC[C@H](C(=O)O)CC1 [Compound 5, (1R,4r)-4-((R)-1-(((R)-6-(4-fluorophenyl)-6-methyl-4-(((R)-1-(1-methyl-1H-pyrazol-4-yl)-2-((S)-3-methylpiperidin-1-yl)ethyl)amino)-5,6,7,8-tetrahydroquinazolin-2-yl)amino)propyl)cyclohexane-1-carboxylic acid] | 72 nM | 85.741 % of ANP | 68 nM | 104.503 % of ANP | – |
| CC[C@@H](Nc1nc2c(c(N[C@@H](CN3C4CCCC3CCC4)c3cnn(C)c3)n1)C[C@H](c1ccccc1)CC2)[C@H]1CC[C@H](C(=O)O)CC1 [Compound 59, (1R,4r)-4-((R)-1-(((R)-4-(((R)-2-((1S,5S)-9-azabicyclo[3.3.1]nonan-9-yl)-1-(1-methyl-1H-pyrazol-4-yl)ethyl)amino)-6-phenyl-5,6,7,8-tetrahydroquinazolin-2-yl)amino)propyl)cyclohexane-1-carboxylic acid] | 205 nM | 99.614 % of ANP | – | 104.401 % of ANP | 153 nM |
| CC[C@@H](Nc1nc2c(c(N[C@@H](CN3CCCCCC3)c3cnn(C)c3)n1)C[C@H](c1cccc(F)c1)CC2)[C@H]1CC[C@H](C(=O)O)CC1 [Compound 3, (1R,4r)-4-((R)-1-(((R)-4-(((R)-2-(azepan-1-yl)-1-(1-methyl-1H-pyrazol-4-yl)ethyl)amino)-6-(3-fluorophenyl)-5,6,7,8-tetrahydroquinazolin-2-yl)amino)propyl)cyclohexane-1-carboxylic acid] | 66 nM | 105.403 % of ANP | 45 nM | 107.571 % of ANP | – |
| CC[C@@H](Nc1nc2c(c(N[C@H](CN3CCC[C@H](C)C3)c3cnn(C)c3)n1)C[C@](C)(c1cccc(F)c1)CC2)[C@H]1CC[C@H](C(=O)O)CC1 (stereo in doubt) [Compound 130, (1S,4r)-4-((S)-1-(((S)-6-(3-fluorophenyl)-6-methyl-4-(((R)-1-(1-methyl-1H-pyrazol-4-yl)-2-((R)-3-methylpiperidin-1-yl)ethyl)amino)-5,6,7,8-tetrahydroquinazolin-2-yl)amino)propyl)cyclohexane-1-carboxylic acid] | 671 nM | 88.663 % of ANP | 205 nM | 114.798 % of ANP | – |
| CC[C@H]([C@H]1CC[C@H](C(=O)O)CC1)N(C)c1nc2c(c(N[C@@H](CN3CCC[C@H](OC)C3)c3cnn(C)c3)n1)C[C@H](c1ccccc1)CC2 [Compound 134, (1R,4r)-4-((R)-1-(((R)-4-(((R)-2-((S)-3-methoxypiperidin-1-yl)-1-(1-methyl-1H-pyrazol-4-yl)ethyl)amino)-6-phenyl-5,6,7,8-tetrahydroquinazolin-2-yl)(methyl)amino)propyl)cyclohexane-1-carboxylic acid] | 792 nM | 101.936 % of ANP | 684 nM | 96.371 % of ANP | – |
| CC[C@H]([C@H]1CC[C@H](C(=O)O)CC1)N(C)c1nc2c(c(N[C@@H](CN3CCCCC3)c3cnn(CC)c3)n1)C[C@@H](c1cccc(F)c1)CC2 [Compound 116, (1R,4r)-4-((R)-1-(((S)-4-(((R)-1-(1-ethyl-1H-pyrazol-4-yl)-2-(piperidin-1-yl)ethyl)amino)-6-(3-fluorophenyl)-5,6,7,8-tetrahydroquinazolin-2-yl)(methyl)amino)propyl)cyclohexane-1-carboxylic acid] | 477 nM | 95.817 % of ANP | 471 nM | 104.029 % of ANP | – |
| CC[C@H]([C@H]1CC[C@H](C(=O)O)CC1)N(C)c1nc2c(c(N[C@@H](CN3CCC[C@H](C)C3)c3cnn(C)c3)n1)C[C@H](c1ccccc1)CC2 [Compound 40, (1R,4r)-4-((R)-1-(methyl((R)-4-(((R)-1-(1-methyl-1H-pyrazol-4-yl)-2-((S)-3-methylpiperidin-1-yl)ethyl)amino)-6-phenyl-5,6,7,8-tetrahydroquinazolin-2-yl)amino)propyl)cyclohexane-1-carboxylic acid] | 166 nM | 102.476 % of ANP | 127 nM | 105.150 % of ANP | – |
| CC[C@@H](Nc1nc2c(c(N[C@@H](CN3CCCCC3)c3cnn(CC)c3)n1)C[C@H](c1ccccc1)CC2)[C@H]1CC[C@H](C(=O)O)CC1 [Compound 45, (1R,4r)-4-((R)-1-(((R)-4-(((R)-1-(1-ethyl-1H-pyrazol-4-yl)-2-(piperidin-1-yl)ethyl)amino)-6-phenyl-5,6,7,8-tetrahydroquinazolin-2-yl)amino)propyl)cyclohexane-1-carboxylic acid] | 175 nM | 98.472 % of ANP | 125 nM | 99.911 % of ANP | – |
| CC[C@@H](N(C)c1nc2c(c(N[C@@H](CN3C4CCCC3CCC4)c3cnn(C)c3)n1)C[C@](C)(c1ccccc1)CC2)C12CC(C(=O)O)(C1)C2 [Compound 27, 3-((R)-1-(((R)-4-(((R)-2-((1S,5S)-9-azabicyclo[3.3.1]nonan-9-yl)-1-(1-methyl-1H-pyrazol-4-yl)ethyl)amino)-6-methyl-6-phenyl-5,6,7,8-tetrahydroquinazolin-2-yl)(methyl)amino)propyl)bicyclo[1.1.1]pentane-1-carboxylic acid] | 137 nM | 92.458 % of ANP | – | 102.654 % of ANP | 137 nM |
| CC[C@H]([C@H]1CC[C@H](CC(=O)O)CC1)N(C)c1nc2c(c(N[C@@H](CN3CCC[C@H](C)C3)c3cnn(C)c3)n1)C[C@H](c1cccc(F)c1)CC2 [Compound 39, 2-((1R,4r)-4-((R)-1-(((R)-6-(3-fluorophenyl)-4-(((R)-1-(1-methyl-1H-pyrazol-4-yl)-2-((S)-3-methylpiperidin-1-yl)ethyl)amino)-5,6,7,8-tetrahydroquinazolin-2-yl)(methyl)amino)propyl)cyclohexyl)acetic acid] | 162 nM | 100.189 % of ANP | 102 nM | 97.588 % of ANP | – |
